Here are results for six compounds from patent US5128366A, “Pyrrole derivatives” (Shinogi & Co., Ltd., priority 1990, dated 1992).

The structures appear in SMILES notation.

The experiment deals with T1, HMG-CoA reductase (Rattus norvegicus, UniProt P51639).
T1 construct: from tissue; host or cells: liver microsomes of Sprague-Dawley rats fed 2% cholestyramine for 2 weeks
T1 sequence (P51639 1-887): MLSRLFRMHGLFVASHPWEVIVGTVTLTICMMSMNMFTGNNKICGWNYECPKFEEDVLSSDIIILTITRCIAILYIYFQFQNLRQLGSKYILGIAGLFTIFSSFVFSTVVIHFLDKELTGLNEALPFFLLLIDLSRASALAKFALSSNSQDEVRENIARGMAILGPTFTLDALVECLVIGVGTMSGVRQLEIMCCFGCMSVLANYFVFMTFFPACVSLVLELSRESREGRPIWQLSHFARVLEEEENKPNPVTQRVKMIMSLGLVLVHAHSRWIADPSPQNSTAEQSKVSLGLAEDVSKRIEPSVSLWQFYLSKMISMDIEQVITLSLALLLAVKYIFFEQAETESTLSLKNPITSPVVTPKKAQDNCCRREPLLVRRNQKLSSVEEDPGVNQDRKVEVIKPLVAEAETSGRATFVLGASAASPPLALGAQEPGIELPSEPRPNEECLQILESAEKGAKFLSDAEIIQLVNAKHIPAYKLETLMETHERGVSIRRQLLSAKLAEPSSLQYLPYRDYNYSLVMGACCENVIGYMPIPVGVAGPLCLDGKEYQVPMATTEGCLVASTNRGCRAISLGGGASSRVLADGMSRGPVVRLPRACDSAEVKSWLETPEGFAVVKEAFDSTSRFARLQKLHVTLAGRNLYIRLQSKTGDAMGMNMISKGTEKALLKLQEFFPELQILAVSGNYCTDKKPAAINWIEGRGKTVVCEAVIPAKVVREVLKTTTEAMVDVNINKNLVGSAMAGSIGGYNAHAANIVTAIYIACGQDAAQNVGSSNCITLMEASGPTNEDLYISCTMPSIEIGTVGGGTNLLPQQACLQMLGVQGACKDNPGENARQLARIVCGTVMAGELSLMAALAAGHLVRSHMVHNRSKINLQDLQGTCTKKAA
Nature of the experiment: HMG-CoA reductase inhibitory effect in rat liver microsome, [3-14C]HMG-CoA, TLC and scintillation counting. Format: biochemical. The note with it: comparative activity, Mevinolin (sodium salt) as reference drug = 100, sodium salt of the test compound, 37° C., 30 minutes. As to the method:
(1) Preparation of Rat Liver Microsome
Sprague-Dawley rats, which were in free access to ordinary diets containing 2% cholestyramine and water for 2 weeks, were used for the preparation of rat liver microsome, which were then purified according to the manner by Kuroda et al., Biochem. Biophys. Act, 486, 70 (1977). The microsomal fraction obtained by centrifugation at 105000×g was washed once with a buffered solution containing 15 mM nicotinamide and 2 mM magnesium chloride (in a 100 mM potassium phosphate buffer, pH 7.4). It was homogenized with a buffer containing nicotinamide and magnesium chloride at the same weight as the liver employed. The thus obtained homogenate was cooled down to and kept at -80° C.
(2) Measurement of the HMG-CoA Reductase Inhibitory Activities
The rat liver microsome (100 μl), which was preserved at -80° C., was […] at 0° C. and diluted with 0.7 ml of a cold potassium phosphate buffer (100 mM, pH 7.4 ). This was mixed with 0.8 ml of 50 mM EDTA (buffered with the aforementioned potassium phosphate buffer) and 0.4 ml of 100 mM dithiothreitol solution (buffered with the aforementioned potassium phosphate buffer), and the mixture was kept at 0° C. The microsome solution, 1.675 ml, was mixed with 670 μl of 25 mM NADPH (buffered with the aforementioned potassium phosphate buffer), and the solution was added to the solution of 0.5 mM [3^-14 C]HMG-CoA (3 mCi/mmol). Potassium phosphate buffer of sodium salt of the test compound 5 μl is added to the mixture of microsome and HMG-CoA 45 μl, and the resulting mixture was incubated at 37° C. for 30 minutes and cooled. After termination of the reaction by addition of 10 μl of 2N-HCl, the mixture was incubated again at 37° C. for 15 minutes and then 30 μl of this mixture was applied to thin-layer chromatography with silica gel of 0.5 mm in thickness (Merck AG, Art 5744). The chromatograms were developed in toluene/acetone (1/1) and the sections, whose Rf value was between 0.45 to 0.6, were scraped. The obtained products were put into a vial containing 8 ml of scintillator to measure specific radio-activity with a scintillation counter.
On the technique in general: Microsomes from liver hold many membrane-bound enzymes, among them those of drug oxidation.
Take `CC(C)c1c(/C=C/[C@@H](O)C[C@@H](O)CC(=O)O)c(-c2ccc(F)cc2)cn1S(C)(=O)=O` (relative stereo) [Ia-10]: the “HMG-CoA reductase inhibitory activities” value is given as 263. The same measure for `CC(C)c1c(/C=C/[C@@H](O)C[C@@H](O)CC(=O)O)c(-c2ccc(F)cc2)c(-c2ccc(F)cc2)n1S(C)(=O)=O` (relative stereo) [Ia-17, 7-.upsilon.4,5-Di-(4-fluorophenyl)-2-isopropyl-1-(methylsulfonyl)-pyrrol-3-yl]-(3R*,5S*)-dihydroxy-(E)-6-heptenoic acid]: 293. `CCS(=O)(=O)n1c(C)c(-c2ccc(F)cc2)c(/C=C/[C@@H](O)C[C@@H](O)CC(=O)O)c1C(C)C` (relative stereo) [Ia-18, 7-[4-(4-Fluorophenyl)-2-isopropyl-5-methyl-(1-ethylsulfonyl)pyrrol-3-yl]-(3R*,5S*)-dihydroxy-(E)-6-heptenate]: the “HMG-CoA reductase inhibitory activities” value is reported as 228. Turning to `Cc1c(-c2ccc(F)cc2)c(/C=C/[C@@H](O)C[C@@H](O)CC(=O)O)c(C(C)C)n1S(=O)(=O)Cc1ccccc1` (relative stereo) [Ia-19, 7-[4-(4-Fluorophenyl)-2-isopropyl-5-methyl-(1-benzylsulfonyl)-pyrrol-3-yl]-(3R*,5S*)-dihydroxy-(E)-6-heptenate], the “HMG-CoA reductase inhibitory activities” value is 105. For the compound `Cc1c(-c2ccc(F)cc2)c(/C=C/[C@@H](O)C[C@@H](O)CC(=O)O)c(C(C)C)n1S(C)(=O)=O` [Id-2, (+) Sodium 7-[4-(4-fluorophenyl)-2-isopropyl-5-methyl-(1-methylsulfonyl)pyrrol-3-yl]-(3R,5S)-dihydroxy-(E)-6-heptenate], the “HMG-CoA reductase inhibitory activities” value amounted to 418.

On to `CC[C@H](C)C(=O)O[C@H]1C[C@@H](C)C=C2C=C[C@H](C)[C@H](CC[C@@H](O)C[C@@H](O)CC(=O)O)[C@H]21` [Mevinolin Na, Mevinolin, reference compound], for which the “HMG-CoA reductase inhibitory activities” value was 100.
